# Laboratory results published in ChEMBL document CHEMBL5352436, “Triterpenoid pyrazines and pyridines - Synthesis, cytotoxicity, mechanism of action, preparation of prodrugs” (Eur J Med Chem, 2022).
# The source made the active and inactive calls. The calls are words filed in the database; no cut-off is given here.
# How the values were obtained:
# [1] = tested on: CCRF-CEM; assay: Induction of apoptosis in human CCRF-CEM cells assessed as early apoptotic cells at 5 times IC50 incubated for 24 hrs by Annexin V and propidium iodide staining based flow cytometry analysis […]; format: functional
# [2] = tested on: CCRF-CEM; assay: Induction of apoptosis in human CCRF-CEM cells assessed as decrease in c-Myc expression at 1 to 5 times IC50 incubated for 24 hrs by Western blot analysis; format: functional, cell-based
# [3] = tested on: CCRF-CEM; assay: Induction of apoptosis in human CCRF-CEM cells assessed as PARP cleavage at 1 to 5 times IC50 incubated for 24 hrs by Western blot analysis; format: functional, cell-based
# [4] = tested on: CCRF-CEM; assay: Induction of apoptosis in human CCRF-CEM cells assessed as late apoptotic cells at 1 time IC50 incubated for 24 hrs by Annexin V and propidium iodide staining based flow cytometry analysis (reference value: […]); format: functional
# [5] = tested on: CCRF-CEM; assay: Induction of apoptosis in human CCRF-CEM cells assessed as accumulation of Bid protein expression at 1 to 5 times IC50 incubated for 24 hrs by Western blot analysis; format: functional, cell-based
# [6] = tested on: CCRF-CEM; assay: Induction of apoptosis in human CCRF-CEM cells assessed as necrotic cells at 5 times IC50 incubated for 24 hrs by Annexin V and propidium iodide staining based flow cytometry analysis […]; format: functional
# [7] = tested on: CCRF-CEM; assay: Induction of apoptosis in human CCRF-CEM cells assessed as necrotic cells at 1 time IC50 incubated for 24 hrs by Annexin V and propidium iodide staining based flow cytometry analysis (reference value: 0.0%); format: functional
# [8] = tested on: CCRF-CEM; assay: Induction of apoptosis in human CCRF-CEM cells assessed as viable cells at 5 times IC50 incubated for 24 hrs by Annexin V and propidium iodide staining based flow cytometry analysis […]; format: functional
# [9] = tested on: CCRF-CEM; assay: Induction of apoptosis in human CCRF-CEM cells assessed as viable cells at 1 time IC50 incubated for 24 hrs by Annexin V and propidium iodide staining based flow cytometry analysis […]; format: functional
# [10] = tested on: CCRF-CEM; assay: Induction of apoptosis in human CCRF-CEM cells assessed as increase in Noxa expression at 1 to 5 times IC50 incubated for 24 hrs by Western blot analysis; format: functional, cell-based
# [11] = tested on: CCRF-CEM; assay: Induction of apoptosis in human CCRF-CEM cells assessed as early apoptotic cells at 1 time IC50 incubated for 24 hrs by Annexin V and propidium iodide staining based flow cytometry analysis (reference value: […]); format: functional
# [12] = tested on: CCRF-CEM; assay: Induction of apoptosis in human CCRF-CEM cells assessed as late apoptotic cells at 5 times IC50 incubated for 24 hrs by Annexin V and propidium iodide staining based flow cytometry analysis […]; format: functional
# [13] = tested on: CCRF-CEM; assay: Induction of apoptosis in human CCRF-CEM cells assessed as accumulation of Bax protein expression at 1 to 5 times IC50 incubated for 24 hrs by Western blot analysis; format: functional, cell-based
# [14] = tested on: K562; assay: Cytotoxicity against human K562 cells assessed as reduction in cell viability incubated for 72 hrs by MTS assay; format: functional, cell-based; conditions: K562, 72 h
# [15] = Cytotoxicity against human BJ cells assessed as reduction in cell viability incubated for 72 hrs by MTS assay; format: toxicity, cell-based
# [16] = tested on: CCRF-CEM; assay: Cytotoxicity against human CCRF-CEM cells assessed as reduction in cell viability incubated for 72 hrs by MTS assay; format: functional, cell-based
# [17] = Cytotoxicity against human K562-Tax cells assessed as reduction in cell viability incubated for 72 hrs by MTS assay; format: functional, cell-based
# [18] = tested on: A549; assay: Cytotoxicity against human A549 cells assessed as reduction in cell viability incubated for 72 hrs by MTS assay; format: functional, cell-based; conditions: A549, 72 h
# [19] = tested on: U2OS; assay: Cytotoxicity against human U2OS cells assessed as reduction in cell viability incubated for 72 hrs by MTS assay; format: functional, cell-based
# [20] = tested on: CEM-DNR; assay: Cytotoxicity against human CEM-DNR cells assessed as reduction in cell viability incubated for 72 hrs by MTS assay; format: functional, cell-based
# [21] = Cytotoxicity against human HCT116-p53-null cells assessed as reduction in cell viability incubated for 72 hrs by MTS assay; format: functional, cell-based
# [22] = Cytotoxicity against human MRC5 cells assessed as reduction in cell viability incubated for 72 hrs by MTS assay; format: toxicity, cell-based
# [23] = tested on: HCT-116; assay: Cytotoxicity against human HCT-116 cells assessed as reduction in cell viability incubated for 72 hrs by MTS assay; format: functional, cell-based; conditions: HCT-116, 72 h
# [24] = Plasma protein binding in human at 10 uM by rapid equilibrium dialysis based RF-MS analysis; format: ADME, cell-free; conditions: read-out: PB (converted)
# [25] = Chemical stability in PBS buffer at pH 7.4 assessed as compound remaining measured at 15 mins by RF-MS analysis; format: physicochemical; conditions: read-out: Stability
# [26] = Apparent permeability of the compound in MDCK-MDR1 cells at 10 uM incubated for 1 hr by RF-MS analysis; format: ADME, cell-based, Canis lupus familiaris; conditions: dog
# [27] = Stability in human plasma assessed as compound remaining at 2 uM measured at 15 mins by RF-MS analysis; format: ADME, cell-free; conditions: read-out: Stability
# [28] = Stability in human plasma assessed as compound remaining at 2 uM measured at 30 mins by RF-MS analysis; format: ADME, cell-free; conditions: read-out: Stability
# [29] = Stability in human liver microsomes assessed as compound remaining at 2 uM measured at 60 mins in presence of NADPH by RF-MS analysis; format: ADME, Microsome; conditions: read-out: Stability
# [30] = Chemical stability in PBS buffer at pH 7.4 assessed as compound remaining measured at 120 mins by RF-MS analysis; format: physicochemical; conditions: read-out: Stability
# [31] = Efflux ratio of apparent permeability across basolateral to apical side over apical to basolateral side in MDCK-MDR1 cells; format: ADME, cell-based, Canis lupus familiaris; conditions: dog
# [32] = Stability in human plasma assessed as compound remaining at 2 uM measured at 60 mins by RF-MS analysis; format: ADME, cell-free; conditions: read-out: Stability
# [33] = Stability in human plasma assessed as compound remaining at 2 uM measured at 120 mins by RF-MS analysis; format: ADME, cell-free; conditions: read-out: Stability
# [34] = Stability in human liver microsomes assessed as compound remaining at 2 uM measured at 30 mins in presence of NADPH by RF-MS analysis; format: ADME, Microsome; conditions: read-out: Stability
# [35] = Apparent permeability of the compound in MDCK-MDR1 cells assessed as drug recovery at 10 uM incubated for 1 hr by RF-MS analysis; format: ADME, cell-based, Canis lupus familiaris; conditions: dog, read-out: Drug recovery
# [36] = Chemical stability in PBS buffer at pH 7.4 assessed as compound remaining measured at 60 mins by RF-MS analysis; format: physicochemical; conditions: read-out: Stability
# [37] = Stability in human liver microsomes assessed as compound remaining at 2 uM measured at 15 mins in presence of NADPH by RF-MS analysis; format: ADME, Microsome; conditions: read-out: Stability
# [38] = Chemical stability in PBS buffer at pH 7.4 assessed as compound remaining measured at 30 mins by RF-MS analysis; format: physicochemical; conditions: read-out: Stability
SMILES,Activity [1],Activity [3],Activity [4],Activity [5],Activity [6],Activity [7],Activity [8],Activity [9],Activity [10],Activity [11],IC50 [14],IC50 at 72 h [15],IC50 [16],IC50 [17],IC50 [18],IC50 [19],IC50 [20],IC50 [21],IC50 at 72 h [22],IC50 [23],further results
C=C(C=O)[C@@H]1CC[C@]2(C(=O)OCc3cn([C@H]4O[C@H](CO)[C@@H](O)[C@H](O)[C@H]4O)nn3)CC[C@]3(C)[C@H](CC[C@@H]4[C@@]5(C)Cc6nccnc6C(C)(C)[C@@H]5CC[C@]43C)[C@@H]12 (stereo in doubt),41.5%,Active,3.3%,Active,0.1%,5%,0.6%,86.9%,Active,4.9%,–,–,–,–,–,–,–,–,–,–,Activity [2]: Active; Activity [12]: 57.7%; Activity [13]: Active
C=C(C)[C@@H]1CC[C@]2(C(=O)OCc3oc(=O)oc3C)CC[C@]3(C)[C@H](CC[C@@H]4[C@@]5(C)CC[C@H](O)C(C)(C)[C@@H]5CC[C@]43C)[C@@H]12,6.1%,Active,1.9%,Active,6.8%,8.7%,83.7%,87.4%,Active,2.1%,8.3 µM,44 µM,4.5 µM,12 µM,13 µM,19 µM,14 µM,15 µM,41 µM,17 µM,Activity [2]: Active; Activity [12]: 3.4%; Activity [13]: Active
C=C(C)[C@@H]1CC[C@]2(C(=O)OCc3cn([C@H]4O[C@H](COC(C)=O)[C@@H](OC(C)=O)[C@H](OC(C)=O)[C@H]4OC(C)=O)nn3)CC[C@]3(C)[C@H](CC[C@@H]4[C@@]5(C)Cc6nccnc6C(C)(C)[C@@H]5CC[C@]43C)[C@@H]12 (stereo in doubt),–,–,–,–,–,–,–,–,–,–,> 50 µM,> 50 µM,> 50 µM,> 50 µM,> 50 µM,> 50 µM,49 µM,> 50 µM,> 50 µM,> 50 µM,"fraction unbound at 10 µM [24]: 0.107; remaining at 0.25 h [25]: 98.9%; Papp at 1 h, 10 µM [26]: 1.67 ×10⁻⁶ cm/s; remaining at 0.25 h, 2 µM [27]: 98.7%; remaining at 0.5 h, 2 µM [28]: 91.2%; remaining at 1 h, 2 µM [29]: 97.8%; remaining at 2 h [30]: 92.9%; efflux ratio [31]: 7.1; remaining at 1 h, 2 µM [32]: 88%; remaining at 2 h, 2 µM [33]: 87.1%; remaining at 0.5 h, 2 µM [34]: 98.3%; recovery at 1 h, 10 µM [35]: 87.7%; remaining at 1 h [36]: 92.1%; remaining at 0.25 h, 2 µM [37]: 99.3%; remaining at 0.5 h [38]: 99.5%"
C=C(C)[C@@H]1CC[C@]2(C(=O)OCc3oc(=O)oc3C)CC[C@]3(C)[C@H](CC[C@@H]4[C@@]5(C)CCC(=O)C(C)(C)[C@@H]5CC[C@]43C)[C@@H]12,7.1%,Active,1.9%,Active,1.1%,6.4%,85.3%,89.8%,Active,2%,0.87 µM,> 50 µM,2.3 µM,11 µM,9.5 µM,22 µM,9.1 µM,19 µM,47 µM,21 µM,Activity [12]: 6.5%; Activity [13]: Active
CC1(C)CC[C@]23CC[C@]4(C)[C@H](CC[C@@H]5[C@@]6(C)Cc7cccnc7C(C)(C)[C@@H]6CC[C@]54C)[C@H]2[C@H]1OC3,–,–,–,–,–,–,–,–,–,–,> 50 µM,> 50 µM,> 50 µM,> 50 µM,> 50 µM,> 50 µM,> 50 µM,> 50 µM,> 50 µM,> 50 µM,–
